Key:
PYL5 = target: T1, PYL5 (Arabidopsis thaliana, UniProt Q9FLB1); assay: Protein dephosphorylation enzyme activity test, PYL5; type: biochemical, thale cress; settings: control = 100%
T1 construct: 6xHis (N); made in house; host or cells: Escherichia coli BL21-codonplus(DE3)-RIPL (PYL); BL21(DE3)pLysS (HAB1)
T1 sequence (Q9FLB1 1-203): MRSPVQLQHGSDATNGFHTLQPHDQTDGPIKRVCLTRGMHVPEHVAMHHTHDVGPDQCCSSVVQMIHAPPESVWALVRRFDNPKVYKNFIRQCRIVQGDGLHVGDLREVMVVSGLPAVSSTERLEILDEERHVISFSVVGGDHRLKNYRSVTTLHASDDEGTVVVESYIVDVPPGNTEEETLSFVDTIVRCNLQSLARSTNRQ
Method: (§1) A plasmid (pGex-2T-GST-HAB1 or pET28-6×His-PYL) encoded with PYR/PYL/RCAR proteins (PYL, abscisic acid receptor) or protein dephosphorylation enzyme HAB1 of thale cress was transformed to Escherichia coli (HAB1:BL21(DE3)pLysS, PYL:BL21-codonplus(DE3)-RIPL). Isopropyl-β-thiogalactopyranoside was added to the culture broth, which had been subjected to pre-culture (30° C., 180 rpm, 15 hours) and main culture (30° C., 180 rpm, 4 hours), and the protein-expressed (16° C., 150 rpm, 18 hours) crude enzyme solution was purified using FPLC thereby preparing the recombined PYL (PYR1, PYL1-6, PYL8-10) and HAB1. β-Mercaptoethanol, a manganese chloride aqueous solution, HAB1, PYL, a solution of the sample in dimethylsulfoxide and ultrapure water were sequentially added to a 96-well plate, allowed to stand at 22° C. for 30 minutes. Subsequently p-nitrophenylphosphate, which is the artificial substrate of HAB1, was added thereto to start the reaction, and the plate was placed in a microplate reader (TECAN, Infinite™ N200 NanoQuant). The absorbance at 405 nm due to p-nitrophenol, which is the hydrolysate of p-nitrophenylphosphate, was measured 3 minutes later from the reaction initiation, and HAB1 activity was calculated by the following formula (2). Note that the fraction to which only dimethylsulfoxide was added was considered to be the control and the activity thereof was defined as 100%. […] HAB1 specific activity (%)=Absorbance when sample was added/Absorbance of control×100 (2)

PYR1 = target: T2, PYR1 (Arabidopsis thaliana, UniProt O49686); assay: Protein dephosphorylation enzyme activity test, PYR1; type: biochemical, thale cress; settings: control = 100%
T2 construct: 6xHis (N); made in house; host or cells: Escherichia coli BL21-codonplus(DE3)-RIPL (PYL); BL21(DE3)pLysS (HAB1)
T2 sequence (O49686 1-191): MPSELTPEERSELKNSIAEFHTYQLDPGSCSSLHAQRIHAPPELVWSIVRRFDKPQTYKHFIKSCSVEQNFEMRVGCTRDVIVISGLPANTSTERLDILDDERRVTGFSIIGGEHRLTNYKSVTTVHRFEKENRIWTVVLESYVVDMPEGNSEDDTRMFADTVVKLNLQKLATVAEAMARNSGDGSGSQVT
Method: as §1

[1] = tested on: seeds of thale cress (Arabidopsis thaliana, Col-0); assay: Thale cress seed germination test; type: in vivo
Method: Seeds of thale cress (Arabidopsis thaliana, Col-0) were immersed in 500 μL of an aqueous solution of 70% ethanol for 30 minutes, subsequently in 500 μL of a 100% ethanol solution for 1 minute, washed five times in 1 mL of distilled water, then immersed in distilled water and, in a dark place, vernalized at 4° C. for 3 days. A solution of the sample in methanol was put in a 1.5 mL-microtube, and methanol was removed therefrom under reduced pressure. An aqueous solution of 0.5% agar (containing ½ MS medium inorganic salts) at 70° C. was added thereto and stirred, and subsequently the obtained mixture was placed in a 96-well plate to prepare the medium containing the sample. All samples were prepared so as to have a concentration of 3 μM of the compound in Examples 1 to 9 and Comparative Example 1. Further, when ABA is applied, the ABA concentration was adjusted to 0.3 μM. 20 to 30 vernalized seeds of thale cress were planted in each well and cultured at 22° C. under continuous light to monitor the number of seeds germinated over time. The germination rate was calculated by the following formula (1). Note that those cultured in medium prepared using methanol in the same manner were used as controls. […] Germination rate (%)=Number of seeds germinated/Number of seeds planted×100 (1)
The same test was carried out as in Test Example 1 with the concentrations of the compound of Example 1 for treatment varying from 0.3 μM to 30 μM.
Similarly, the same test was carried out with the concentrations of the compound of Example 2 for treatment varying from 0.3 μM to 30 μM.
The same test was carried out as in Test Example 2 with the concentrations of the compounds for treatment varying from 0.3 μM to 3 μM to compare the recovery effects on seed germination rate of the compound of Example 1 and the compound of Comparative Example 1.

PYL10 = target: T3, PYL10 (Arabidopsis thaliana, UniProt Q8H1R0); assay: Protein dephosphorylation enzyme activity test, PYL10; type: biochemical, thale cress; settings: control = 100%
T3 construct: 6xHis (N); made in house; host or cells: Escherichia coli BL21-codonplus(DE3)-RIPL (PYL); BL21(DE3)pLysS (HAB1)
T3 sequence (Q8H1R0 1-183): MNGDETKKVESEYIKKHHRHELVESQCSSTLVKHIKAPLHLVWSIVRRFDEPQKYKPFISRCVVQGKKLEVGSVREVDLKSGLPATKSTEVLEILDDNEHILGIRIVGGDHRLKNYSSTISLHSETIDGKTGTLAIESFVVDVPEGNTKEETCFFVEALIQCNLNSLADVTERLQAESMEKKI
Method: as §1

PYL4 = target: T4, PYL4 (Arabidopsis thaliana, UniProt O80920); assay: Protein dephosphorylation enzyme activity test, PYL4; type: biochemical, thale cress; settings: control = 100%
T4 construct: 6xHis (N); made in house; host or cells: Escherichia coli BL21-codonplus(DE3)-RIPL (PYL); BL21(DE3)pLysS (HAB1)
T4 sequence (O80920 1-207): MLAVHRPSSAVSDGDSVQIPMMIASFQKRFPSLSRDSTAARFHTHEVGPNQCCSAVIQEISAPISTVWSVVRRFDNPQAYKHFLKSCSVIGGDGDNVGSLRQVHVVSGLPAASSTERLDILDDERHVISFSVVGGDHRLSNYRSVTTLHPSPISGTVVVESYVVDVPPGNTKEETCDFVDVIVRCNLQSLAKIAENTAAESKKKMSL
Method: as §1

PYL2 = target: T5, PYL2 (Arabidopsis thaliana, UniProt O80992); assay: Protein dephosphorylation enzyme activity test, PYL2; type: biochemical, thale cress; settings: control = 100%
T5 construct: 6xHis (N); made in house; host or cells: Escherichia coli BL21-codonplus(DE3)-RIPL (PYL); BL21(DE3)pLysS (HAB1)
T5 sequence (O80992 1-190): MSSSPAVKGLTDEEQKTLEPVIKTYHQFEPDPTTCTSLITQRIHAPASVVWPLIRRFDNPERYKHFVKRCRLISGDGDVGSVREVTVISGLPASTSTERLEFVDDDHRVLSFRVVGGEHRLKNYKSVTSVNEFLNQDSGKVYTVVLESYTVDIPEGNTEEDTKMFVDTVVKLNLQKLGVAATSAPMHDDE
Method: as §1

[2] = 3 μM compound co-applied with 0.3 μM ABA

HAB1 Specific activity (%) PYL5 (PYL5; sample alone)	HAB1 Specific activity (%) PYR1 (PYR1; sample alone)	HAB1 Specific activity (%) PYL10 (PYL10; sample alone)	HAB1 Specific activity (%) PYL4 (PYL4; sample alone)	HAB1 Specific activity (%) PYL2 (PYL2; sample alone)	HAB1 Specific activity (%) PYL5 (PYL5; ABA + compound)	HAB1 Specific activity (%) PYR1 (PYR1; ABA + compound)	HAB1 Specific activity (%) PYL10 (PYL10; ABA + compound)	HAB1 Specific activity (%) PYL2 (PYL2; ABA + compound)	SMILES	Germination rate (%) 24 Hours later [1, 2]	Germination rate (%) 36 Hours later [1, 2]	Germination rate (%) 48 Hours later [1, 2]	Germination rate (%) 60 Hours later [1, 2]	Germination rate (%) 24 Hours later ([1]; compound alone, 3 μM)	Germination rate (%) 36 Hours later ([1]; compound alone, 3 μM)	Germination rate (%) 48 Hours later ([1]; compound alone, 3 μM)	Germination rate (%) 60 Hours later ([1]; compound alone, 3 μM)	also measured
85.8%	99.6%	93.7%	108%	96.6%	87%	49%	90.7%	84.8%	CC1=C[C@@H](OCC#Cc2ccccc2)CC(C)(C)[C@@]1(O)/C=C/C(C)=C\C(=O)O [Example 1, (2Z,4E)-5-((1S,4S)-1-hydroxy-2,6,6-trimethyl-4-((3-phenylprop-2-yn-1-yl)oxy)cyclohex-2-en-1-yl)-3-methylpenta-2,4-dienoic acid]	0%	79%	100%	100%	0%	86%	100%	100%	Recovery of seed germination rate decreased by ABA ([1]; compound 0.3 μM to 30 μM co-applied with ABA): seed germination rates decreased by ABA are recovered; Recovery effect on seed germination rate, comparison ([1]; compounds 0.3 μM to 3 μM, co-applied with ABA): excels in the recovery effect on seed germination rate more than the compound of Comparative Example 1
85.5%	95.7%	99.0%	119%	133%	74.6%	62.6%	82.5%	113%	CC1=C[C@@H](OCC#Cc2ccc(C)cc2)CC(C)(C)[C@@]1(O)/C=C/C(C)=C\C(=O)O [Example 7]	0%	76%	100%	100%	0%	86%	100%	100%	HAB1 Specific activity (%) PYL4 (PYL4; ABA + compound): 101%

SMILES	HAB1 Specific activity (%) PYL5 (PYL5; sample alone)	HAB1 Specific activity (%) PYR1 (PYR1; sample alone)	HAB1 Specific activity (%) PYL10 (PYL10; sample alone)	HAB1 Specific activity (%) PYL4 (PYL4; sample alone)	HAB1 Specific activity (%) PYL2 (PYL2; sample alone)	HAB1 Specific activity (%) PYL5 (PYL5; ABA + compound)	HAB1 Specific activity (%) PYR1 (PYR1; ABA + compound)	HAB1 Specific activity (%) PYL10 (PYL10; ABA + compound)	HAB1 Specific activity (%) PYL2 (PYL2; ABA + compound)	Germination rate (%) 24 Hours later [1, 2]	Germination rate (%) 36 Hours later [1, 2]	Germination rate (%) 48 Hours later [1, 2]	Germination rate (%) 60 Hours later [1, 2]	Germination rate (%) 24 Hours later ([1]; compound alone, 3 μM)	Germination rate (%) 36 Hours later ([1]; compound alone, 3 μM)	Germination rate (%) 48 Hours later ([1]; compound alone, 3 μM)	Germination rate (%) 60 Hours later ([1]; compound alone, 3 μM)	also measured
CC1=CC(=O)CC(C)(C)[C@@]1(O)/C=C/C(C)=C\C(=O)O [ABA, abscisic acid]	15.5%	18.6%	16.2%	18.2%	13.1%	–	–	–	–	–	–	–	–	–	–	–	–	Germination rate (%) 24 Hours later ([1]; ABA alone, 0.3 μM): 0%; Germination rate (%) 36 Hours later ([1]; ABA alone, 0.3 μM): 0%; Germination rate (%) 48 Hours later ([1]; ABA alone, 0.3 μM): 16.2%; Germination rate (%) 60 Hours later ([1]; ABA alone, 0.3 μM): 32.6%

From patent US10125095B2, “Abscisic acid derivative” (NATIONAL UNIVERSITY CORPORATION SHIZUOKA UNIVERSITY, priority 2014, dated 2018)
